According to patent US5939403A, “Keratan sulfate oligosaccharide fraction and pharmaceutical containing the same” (Seikagaku Corporation, priority 1994, dated 1999):
Counter-ions that a name gives are not always drawn.

What was measured:
[1] = tested on: MRL-lpr/lpr mice; assay: Repeated intramuscular administration for four weeks in MRL mice (spleen and mesenteric lymph node weight); format: in vivo
Procedure: The effect of the keratan sulfate oligosaccharide was examined on MRL mice which are autoimmune disease model mice.
The PBS solution of the purified keratan sulfate tetrasaccharide (I) (100 mg/ml) which was prepared in Example 1 described above at a dose of 10 mg/kg weight (hereinafter referred to as the administered group), and PBS as the control was intramuscularly injected, respectively, to the femoral region of MRL-lpr/lpr mice five times a week for four weeks. After that, the mice were subjected to anatomization, and the weight of spleens and mesenteric lymph nodes were determined to obtain the average weight. In the table, "n" represents the number of mice used.

[2] = tested on: foot edema reversed passive Arthus reaction; assay: Foot edema reversed passive Arthus reaction; format: in vivo, Male Crj:SD rats
Procedure: The effect of the keratan sulfate oligosaccharide was examined on the foot edema reversed passive Arthus reaction of rats, which is a type III allergic inflammation model. That is, the rabbit antiovalbumin serum was subcutaneously administered to the planta of the rats which were previously subjected to the administration of the test substances, furthermore ovalbumin was administered by injection into the caudal vein thereof to induce inflammation (edema), and the inhibitory effect on edema of the test substances was examined.
Male Crj:SD rats of five weeks old were subjected to a fast of about 17 hours after a week period of quarantine, and, before inducing inflammation, subjected to the administration of the purified keratan sulfate tetrasaccharide (I) which was prepared in Example 1, indomethacin (Sigma; Lot No. 19F0018), or dexamethasone (Banyu Pharmaceutical); Decadron injection; Lot No. 8D307P) as the test substances, or saline (Otsuka Pharmaceutical; Lot No. K3H72) as the negative control. The keratan sulfate tetrasaccharide (I) and dexamethasone were dissolved in saline, respectively, and the indomethacin was dissolved in 0.5% sodium carboxymethylcellulose (CMC-Na; Wako Pure Chemical Industries; Lot No. PTN1418) in use. The volume of dose was 0.5 ml per 100 g weight in each test. Concerning the route of administration, the keratan sulfate tetrasaccharide (I), saline, and dexamethasone were administered from the caudal vein, and the indomethacin was orally administered. And the substances except for indomethacin were administered by the blind method.
The dose and administration schedule of each test substance were as follows. Each group consisted of five animals.
The rabbit antiovalbumin serum was subcutaneously administered to each of the rats described above on the planta thereof, and ovalbumin was further administered by injection into the caudal vein to induce inflammation foot edema. The antiserum used was prepared as follows. That is, to the regions of back of rabbits, 1 ml of the equivalently mixed solution (emulsion) of the saline containing 2% ovalbumin (10 mg per one animal, Egg Albumin 5×Cryst, Lot No. P93601; Seikagaku Corporation) and the Freund's complete adjuvant (FCA) was intradermally injected once a week three times totally to subject themselves to sensitization. About 34 days after the last sensitization, the blood was drawn to obtain the antiserum. The antibody titer of the antiserum obtained was determined by the double layer method. Namely, the determination was performed using the white precipitation reaction of the antiserum diluted with saline and the saline containing 0.1% ovalbumin (1 mg/ml) as the indicator. As a result, the antibody titer of the antiserum obtained was x2^7.
After the period which is designed for each group, each 0.1 ml of the sixfold diluted antiserum was subcutaneously administered to the planta of left rear foot of the rats which were subjected to the administration of each test substance. Then, the saline containing 0.5% ovalbumin (25 mg/5 ml/kg) was administered into the caudal vein to induce inflammation. The volume of the treated feet in each group was determined before inducing inflammation, and one, two, three and four hours after inducing inflammation by a foot volume determining device (TK-101, Unicom) to yield the foot edematization rate from the difference from the value before the induction, and the edematization inhibitory rate of the test substance administered group to the control group was calculated. In each edematization rate obtained, the difference between the averages was tested by the minimum significant difference test. The foot edematization rate and the edematization inhibitory rate of each administered group are shown in Table 9, and the foot edematization rate of the administered groups which was subjected to the administration of the agent at five minutes and at three hours before inducing inflammation are shown in FIG. 6 and FIG. 7, respectively. […]

## CC(=O)N[C@H]1[C@H](O[C@H]2[C@@H](O)[C@@H](COS(=O)(=O)O)O[C@@H](O[C@H]3[C@H](O)[C@@H](NC(C)=O)C(O)O[C@@H]3COS(=O)(=O)O)[C@@H]2O)O[C@H](COS(=O)(=O)O)[C@@H](O[C@@H]2O[C@H](COS(=O)(=O)O)[C@H](O)[C@H](O)[C@H]2O)[C@@H]1O (stereo partly drawn) [keratan sulfate tetrasaccharide (I), Gal(6S)β1-4GlcNAc(6S)β1-3Gal(6S)β1-4GlcNAc(6S)]
[1]; 10 mg/kg i.m.
  weight increase in spleens and mesenteric lymph nodes (result in words): a suppressive tendency for the weight increase in spleens and mesenteric lymph nodes was observed
[1]; 10 mg/kg i.m. five times a week, n = 9, mean ± standard error, control 1013 ± 233
  Spleen Weight: 704 ± 148 mg
[1]; 10 mg/kg i.m. five times a week, n = 9, mean ± standard error, control 1563 ± 352
  Mesenteric Lymph Node Weight: 1338 ± 311 mg
[2]; 1 Hour Later, 1 mg/kg i.v. at 5 minutes before inducing edema
  Inhibitory Rate: 28.7%
[2]; 1 Hour Later, 1 mg/kg i.v. at 5 minutes before inducing edema, P < 0.01, control 40.9
  Edematization Rate: 29.2 ± 1.3%
[2]; 1 Hour Later, 1 mg/kg i.v. at 3 hours before inducing edema
  Inhibitory Rate: 13.4%
[2]; 1 Hour Later, 1 mg/kg i.v. at 3 hours before inducing edema, control 40.9
  Edematization Rate: 35.4 ± 1.6%
[2]; 1 Hour Later, 3 mg/kg i.v. at 5 minutes before inducing edema
  Inhibitory Rate: 15.8%
[2]; 1 Hour Later, 3 mg/kg i.v. at 5 minutes before inducing edema, control 40.9
  Edematization Rate: 34.4 ± 5.2%
[2]; 1 Hour Later, 3 mg/kg i.v. at 3 hours before inducing edema
  Inhibitory Rate: 10.6%
[2]; 1 Hour Later, 3 mg/kg i.v. at 3 hours before inducing edema, control 40.9
  Edematization Rate: 36.5 ± 3.5%
[2]; 1 Hour Later, 10 mg/kg i.v. at 5 minutes before inducing edema
  Inhibitory Rate: 28.9%
[2]; 1 Hour Later, 10 mg/kg i.v. at 5 minutes before inducing edema, P < 0.01, control 40.9
  Edematization Rate: 29.1 ± 3.7%
[2]; 1 Hour Later, 10 mg/kg i.v. at 3 hours before inducing edema
  Inhibitory Rate: -8.1%
[2]; 1 Hour Later, 10 mg/kg i.v. at 3 hours before inducing edema, control 40.9
  Edematization Rate: 44.2 ± 3.4%
[2]; 2 Hours Later, 1 mg/kg i.v. at 5 minutes before inducing edema
  Inhibitory Rate: 36.5%
[2]; 2 Hours Later, 1 mg/kg i.v. at 5 minutes before inducing edema, P < 0.01, control 46.3
  Edematization Rate: 29.4 ± 2.9%
[2]; 2 Hours Later, 1 mg/kg i.v. at 3 hours before inducing edema
  Inhibitory Rate: 8.4%
[2]; 2 Hours Later, 1 mg/kg i.v. at 3 hours before inducing edema, control 46.3
  Edematization Rate: 42.4 ± 3.6%
[2]; 2 Hours Later, 3 mg/kg i.v. at 5 minutes before inducing edema
  Inhibitory Rate: 8.6%
[2]; 2 Hours Later, 3 mg/kg i.v. at 5 minutes before inducing edema, control 46.3
  Edematization Rate: 42.3 ± 4.2%
[2]; 2 Hours Later, 3 mg/kg i.v. at 3 hours before inducing edema
  Inhibitory Rate: 23.9%
[2]; 2 Hours Later, 3 mg/kg i.v. at 3 hours before inducing edema, P < 0.01, control 46.3, 3 mg/kg
  Edematization Rate: 35.3%
[2]; 2 Hours Later, 3 mg/kg i.v. at 3 hours before inducing edema, P < 0.01, control 46.3, listed as Keratan Sulfate Tetrasaccharide (I), 3 mg/kg
  Edematization Rate: 35.3 ± 2.3%
[2]; 2 Hours Later, 10 mg/kg i.v. at 5 minutes before inducing edema
  Inhibitory Rate: 9.1%
[2]; 2 Hours Later, 10 mg/kg i.v. at 5 minutes before inducing edema, control 46.3
  Edematization Rate: 42.1 ± 2.9%
[2]; 2 Hours Later, 10 mg/kg i.v. at 3 hours before inducing edema
  Inhibitory Rate: 0.4%
[2]; 2 Hours Later, 10 mg/kg i.v. at 3 hours before inducing edema, control 46.3
  Edematization Rate: 46.1 ± 2.6%
[2]; 3 Hours Later, 1 mg/kg i.v. at 5 minutes before inducing edema
  Inhibitory Rate: 17.0%
[2]; 3 Hours Later, 1 mg/kg i.v. at 5 minutes before inducing edema, P < 0.01, control 51.2
  Edematization Rate: 42.3 ± 3.6%
[2]; 3 Hours Later, 1 mg/kg i.v. at 3 hours before inducing edema
  Inhibitory Rate: 8.4%
[2]; 3 Hours Later, 1 mg/kg i.v. at 3 hours before inducing edema, control 51.2
  Edematization Rate: 46.7 ± 2.6%
[2]; 3 Hours Later, 3 mg/kg i.v. at 5 minutes before inducing edema
  Inhibitory Rate: 9.5%
[2]; 3 Hours Later, 3 mg/kg i.v. at 5 minutes before inducing edema, control 51.2
  Edematization Rate: 46.1 ± 2.2%
[2]; 3 Hours Later, 3 mg/kg i.v. at 3 hours before inducing edema
  Inhibitory Rate: 21.5%
[2]; 3 Hours Later, 3 mg/kg i.v. at 3 hours before inducing edema, P < 0.01, control 51.2
  Edematization Rate: 40.1 ± 2.8%
[2]; 3 Hours Later, 10 mg/kg i.v. at 5 minutes before inducing edema
  Inhibitory Rate: 12.3%
[2]; 3 Hours Later, 10 mg/kg i.v. at 5 minutes before inducing edema, control 51.2
  Edematization Rate: 44.8 ± 5.1%
[2]; 3 Hours Later, 10 mg/kg i.v. at 3 hours before inducing edema
  Inhibitory Rate: 18.7%
[2]; 3 Hours Later, 10 mg/kg i.v. at 3 hours before inducing edema, P < 0.01, control 51.2, 10 mg/kg
  Edematization Rate: 41.5%
[2]; 3 Hours Later, 10 mg/kg i.v. at 3 hours before inducing edema, P < 0.01, control 51.2, listed as Keratan Sulfate Tetrasaccharide (I), 10 mg/kg
  Edematization Rate: 41.5 ± 1.8%
[2]; 4 Hours Later, 1 mg/kg i.v. at 5 minutes before inducing edema
  Inhibitory Rate: 11.3%
[2]; 4 Hours Later, 1 mg/kg i.v. at 5 minutes before inducing edema, control 44.9
  Edematization Rate: 39.8 ± 3.0%
[2]; 4 Hours Later, 1 mg/kg i.v. at 3 hours before inducing edema
  Inhibitory Rate: 15.5%
[2]; 4 Hours Later, 1 mg/kg i.v. at 3 hours before inducing edema, P < 0.05, control 44.9, 1 mg/kg
  Edematization Rate: 38%
[2]; 4 Hours Later, 1 mg/kg i.v. at 3 hours before inducing edema, P < 0.05, control 44.9, listed as Keratan Sulfate Tetrasaccharide (I), 1 mg/kg
  Edematization Rate: 38.0 ± 3.5%
[2]; 4 Hours Later, 3 mg/kg i.v. at 5 minutes before inducing edema
  Inhibitory Rate: 17.1%
[2]; 4 Hours Later, 3 mg/kg i.v. at 5 minutes before inducing edema, P < 0.05, control 44.9, 3 mg/kg
  Edematization Rate: 37.2%
[2]; 4 Hours Later, 3 mg/kg i.v. at 5 minutes before inducing edema, P < 0.05, control 44.9, listed as Keratan Sulfate Tetrasaccharide (I), 3 mg/kg
  Edematization Rate: 37.2 ± 3.1%
[2]; 4 Hours Later, 3 mg/kg i.v. at 3 hours before inducing edema
  Inhibitory Rate: 24.4%
[2]; 4 Hours Later, 3 mg/kg i.v. at 3 hours before inducing edema, P < 0.01, control 44.9
  Edematization Rate: 33.9%
[2]; 4 Hours Later, 10 mg/kg i.v. at 5 minutes before inducing edema
  Inhibitory Rate: 21.2%
[2]; 4 Hours Later, 10 mg/kg i.v. at 5 minutes before inducing edema, P < 0.01, control 44.9
  Edematization Rate: 35.4%
[2]; 4 Hours Later, 10 mg/kg i.v. at 3 hours before inducing edema
  Inhibitory Rate: 23.2%
[2]; 4 Hours Later, 10 mg/kg i.v. at 3 hours before inducing edema, P < 0.01, control 44.9
  Edematization Rate: 34.5%
[2]; after an hour, administration at five minutes before inducing inflammation
  foot edematization rate, significance (result in words): the significant difference was observed in the 1 mg/kg administered group and the 10 mg/kg administered group
[2]; an hour after inducing inflammation, administration at three hours before
  foot edematization rate, significance (result in words): significant difference was not observed an hour after inducing inflammation
